According to patent US9156796B2, “Benzoimidazole-carboxylic acid amide derivatives as APJ receptor modulators” (SANOFI, priority 2013, dated 2015):

molecular target: T1, human apelin receptor (Homo sapiens, UniProt P35414); experiment: Determination of agonism on the human apelin receptor by a calcium fluorescence assay (FLIPR); type: cell-based; conditions: HEK293 cells stably transfected with human apelin receptor and Giaq protein, Fluo-4 calcium fluorescence, read-out: EC50 (APJ agonism)
T1 construct: expressed in transfected cells
T1 sequence (P35414 1-380): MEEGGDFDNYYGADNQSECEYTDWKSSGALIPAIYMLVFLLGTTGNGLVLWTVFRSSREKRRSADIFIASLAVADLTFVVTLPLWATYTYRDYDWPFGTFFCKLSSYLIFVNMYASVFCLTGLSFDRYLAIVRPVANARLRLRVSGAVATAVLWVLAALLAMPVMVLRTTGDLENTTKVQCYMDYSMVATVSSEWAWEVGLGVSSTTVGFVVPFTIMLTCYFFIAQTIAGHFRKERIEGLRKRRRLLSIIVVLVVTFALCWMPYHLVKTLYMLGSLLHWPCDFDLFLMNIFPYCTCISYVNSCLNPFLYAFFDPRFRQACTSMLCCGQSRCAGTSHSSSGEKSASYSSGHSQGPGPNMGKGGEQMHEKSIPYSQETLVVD
Description: Determination of Agonism on the Human Apelin Receptor by a Calcium Fluorescence Assay (FLIPR)
The assay is based on the detection of intracellular calcium changes detected by the selective, calcium-chelating dye Fluo-4 (Molecular Probes). A large fluorescence intensity increase is observed upon calcium association with Fluo-4. The dye is delivered to the cell interior using an acetoxymethylester form of Fluo-4, where the intracellular esterase activity results in the charged species being released and trapped within the cytoplasm of the cell. […] By co-expressing the human apelin receptor and a promiscuous Giaq protein, agonism of the apelin receptor couples to phospholipase-C resulting in intracellular calcium mobilization.
The HEK293 cells were stably transfected with the human apelin receptor and the Giaq protein. Cells were selected and maintained in a log phase of growth at 37° and 5% CO2 in the Iscove's minimal essential medium, 10% fetal calf serum, 1× Penicillin-Streptomycin, 400 μg/mL G418. One day prior the assay, cells were passaged by accutase and plated at a density of 50,000 cells/well onto a 96-well plates with black border but clear bottom (Costar, cat#3904) in a final volume of 200 μl growth medium.
In order to load the cells the next day with the calcium-sensitive dye, growth medium was carefully replaced by dye solution (100 μl/well) containing Fluo-4 (4 μM) in basic measurement buffer (135 mM NaCl, 5 mM KCl, 1 mM magnesium sulphate, 5 mM glucose, 20 mM Hepes, 2.5 mM probenecid; adjusted to pH 7.4). Cells were incubated for 1 h at 37° C., and then washed 3× with buffer containing no dye. The washer was programmed to leave a remaining volume of 150 μl after the third wash in the plate.
During the dye-loading of the cells, a serial compound dilution was performed in a separate 96-well plate with overall 4× increased concentrations. Small aliquots of DMSO stock solutions of the compounds (10 mM in 100% DMSO were aliquoted into 150 μl buffer in the first rows of the 96-well plates, and then serially diluted by a factor of 1:3 transferring each time 30 μl to the next rows already containing 60 μl buffer. All compounds were tested in a least 7 concentrations, each condition was performed in triplicates. As comparator, we used freshly prepared apelin-13 solutions, for which also a concentration-response curve was determined at each measurement day. The compound plate was incubated for 10 min after the final dilutions steps at 37° C. before transferring the dye-loaded cell plate and the compound plate into a FLIPR Tetra reader (Molecular Devices). Measurement within this reader started by pipetting the agonist solution (50 μl) on the cell plate. Overall perform 60 reads were performed with an interval of 2 sec. The maximum of the fluorescence transient was used to calculate the agonistic response of the cells. In order to normalize this response, which may vary from plate to plate we set the maximum fluorescence achieved by 1 μM apelin-13 on this plate as 100%.
EC-50 values for apelin-13 and the apelin receptor compounds described in this patent were determined by standard algorithms using a specific software package.

Row | Compound | EC50
1 | O=C(N[C@@H](CC1CCCCC1)C(=O)O)c1ccc2c(c1)nc(Cc1cccs1)n2C1CCCCC1C(F)(F)F (stereo partly drawn) [Example 17, (S)-3-Cyclohexyl-2-{[2-thiophen-2-ylmethyl-1-(2-trifluoromethyl-cyclohexyl)-1H-benzoimidazole-5-carbonyl]-amino}-propionic acid] | 935 nM
2 | CCCC[C@H](NC(=O)c1ccc2c(c1)nc(Cc1cccs1)n2C(CC)CC)C(=O)O [Example 18, (S)-2-{[1-(1-Ethyl-propyl)-2-thiophen-2-ylmethyl-1H-benzoimidazole-5-carbonyl]-amino}-hexanoic acid] | 150 nM
3 | CCC(CC)n1c(Cc2cccs2)nc2cc(C(=O)N[C@@H](Cc3ccc(F)cc3)C(=O)O)ccc21 [Example 19, (S)-2-{[1-(1-Ethyl-propyl)-2-thiophen-2-ylmethyl-1H-benzoimidazole-5-carbonyl]-amino}-3-(4-fluoro-phenyl)-propionic acid] | 5030 nM
4 | CCC(CC)n1c(Cc2cccs2)nc2cc(C(=O)N[C@@H](Cc3ccc(Cl)cc3)C(=O)O)ccc21 [Example 20, (S)-3-(4-Chloro-phenyl)-2-{[1-(1-ethyl-propyl)-2-thiophen-2-ylmethyl-1H-benzoimidazole-5-carbonyl]-amino}-propionic acid] | 1830 nM
5 | CCC(CC)n1c(Cc2cccs2)nc2cc(C(=O)N[C@@H](CC3CC3)C(=O)O)ccc21 [Example 21, (S)-3-Cyclopropyl-2-{[1-(1-ethyl-propyl)-2-thiophen-2-ylmethyl-1H-benzoimidazole-5-carbonyl]-amino}-propionic acid] | 443 nM
6 | CCC(CC)n1c(Cc2cccs2)nc2cc(C(=O)N[C@@H](CC3CCC3)C(=O)O)ccc21 [Example 22, (S)-3-Cyclobutyl-2-{[1-(1-ethyl-propyl)-2-thiophen-2-ylmethyl-1H-benzoimidazole-5-carbonyl]-amino}-propionic acid] | 80 nM
7 | C[C@@H]1CCCC[C@H]1n1c(Cc2cccs2)nc2cc(C(=O)N[C@@H](CC3CCC3)C(=O)O)ccc21 [Example 23, (S)-3-Cyclobutyl-2-{[1-((1R,2R)-2-methyl-cyclohexyl)-2-thiophen-2-ylmethyl-1H-benzoimidazole-5-carbonyl]-amino}-propionic acid] | 106 nM
8 | CCC(CC)n1c(Cc2cccs2)nc2cc(C(=O)NC3(C(=O)O)CCCCC3)ccc21 [Example 24, 1-{[1-(1-Ethyl-propyl)-2-thiophen-2-ylmethyl-1H-benzoimidazole-5-carbonyl]-amino}-cyclohexanecarboxylic acid] | 219 nM
9 | CCCC(C)(NC(=O)c1ccc2c(c1)nc(Cc1cccs1)n2C(CC)CC)C(=O)O (stereo not drawn) [Example 25, 2-{[1-(1-Ethyl-propyl)-2-thiophen-2-ylmethyl-1H-benzoimidazole-5-carbonyl]-amino}-2-methyl-pentanoic acid] | 4750 nM
10 | CCC(CC)n1c(Cc2cccs2)nc2cc(C(=O)NC(CCC(F)(F)F)C(=O)O)ccc21 (stereo not drawn) [Example 26, 2-{[1-(1-Ethyl-propyl)-2-thiophen-2-ylmethyl-1H-benzoimidazole-5-carbonyl]-amino}-5,5,5-trifluoro-pentanoic acid] | 5300 nM
11 | C[C@@H]1CCCC[C@H]1n1c(Cc2cccs2)nc2cc(C(=O)NC(CCC(F)(F)F)C(=O)O)ccc21 (stereo partly drawn) [Example 27, 5,5,5-Trifluoro-2-{[1-((1R,2R)-2-methyl-cyclohexyl)-2-thiophen-2-ylmethyl-1H-benzoimidazole-5-carbonyl]-amino}-pentanoic acid] | 1860 nM
12 | CCC(CC)n1c(Cc2cccs2)nc2cc(C(=O)NC(CCc3ccccc3)C(=O)O)ccc21 (stereo not drawn) [Example 28, 2-{[1-(1-Ethyl-propyl)-2-thiophen-2-ylmethyl-1H-benzoimidazole-5-carbonyl]-amino}-4-phenyl-butyric acid] | 18500 nM
13 | CCC(CC)n1c(Cc2cccs2)nc2cc(C(=O)NC(CC3CCC(C)(C)CC3)C(=O)O)ccc21 (stereo not drawn) [Example 29, 3-(4,4-Dimethyl-cyclohexyl)-2-{[1-(1-ethyl-propyl)-2-thiophen-2-ylmethyl-1H-benzoimidazole-5-carbonyl]-amino}-propionic acid] | 5660 nM
14 | CCc1ccc(CC(NC(=O)c2ccc3c(c2)nc(Cc2cccs2)n3C(CC)CC)C(=O)O)cc1 (stereo not drawn) [Example 30, 3-(4-Ethyl-phenyl)-2-{[1-(1-ethyl-propyl)-2-thiophen-2-ylmethyl-1H-benzoimidazole-5-carbonyl]-amino}-propionic acid] | 2200 nM
15 | CCC(CC)n1c(Cc2cccs2)nc2cc(C(=O)NC(Cc3ccc(C(F)(F)F)cc3)C(=O)O)ccc21 (stereo not drawn) [Example 31, 2-{[1-(1-Ethyl-propyl)-2-thiophen-2-ylmethyl-1H-benzoimidazole-5-carbonyl]-amino}-3-(4-trifluoromethyl-phenyl)-propionic acid] | 4110 nM

Other lines, results leading:

Row | EC50 | Compound
16 | 4570 nM | CCC(CC)n1c(Cc2cccs2)nc2cc(C(=O)N[C@@H](Cc3ccc(Cl)c(Cl)c3)C(=O)O)ccc21 [Example 32, (S)-3-(3,4-Dichloro-phenyl)-2-{[1-(1-ethyl-propyl)-2-thiophen-2-ylmethyl-1H-benzoimidazole-5-carbonyl]-amino}-propionic acid]
17 | 3210 nM | C[C@@H]1CCCC[C@H]1n1c(Cc2cccs2)nc2cc(C(=O)NC(CC3CCC(C)(C)CC3)C(=O)O)ccc21 (stereo partly drawn) [Example 33, 3-(4,4-Dimethyl-cyclohexyl)-2-{[1-((1R,2R)-2-methyl-cyclohexyl)-2-thiophen-2-ylmethyl-1H-benzoimidazole-5-carbonyl]-amino}-propionic acid]
18 | 489 nM | CCC(CC)n1c(Cc2cccs2)nc2cc(C(=O)NC3(C(=O)O)CCC(C)CC3)ccc21 (stereo not drawn) [Example 34, 1-{[1-(1-Ethyl-propyl)-2-thiophen-2-ylmethyl-1H-benzoimidazole-5-carbonyl]-amino}-4-methyl-cyclohexanecarboxylic acid]
19 | 291 nM | CC1CCC(NC(=O)c2ccc3c(c2)nc(Cc2cccs2)n3[C@@H]2CCCC[C@H]2C)(C(=O)O)CC1 (stereo partly drawn) [Example 35, 4-Methyl-1-{[1-((1R,2R)-2-methyl-cyclohexyl)-2-thiophen-2-ylmethyl-1H-benzoimidazole-5-carbonyl]-amino}-cyclohexanecarboxylic acid]
20 | 1260 nM | CCC(CC)n1c(Cc2cccs2)nc2cc(C(=O)NC(CC3CCC(C)CC3)C(=O)O)ccc21 (stereo not drawn) [Example 36, 2-{[1-(1-Ethyl-propyl)-2-thiophen-2-ylmethyl-1H-benzoimidazole-5-carbonyl]-amino}-3-(4-methyl-cyclohexyl)-propionic acid]
21 | 886 nM | C[C@@H]1CCCC[C@H]1n1c(Cc2cncs2)nc2cc(C(=O)N[C@@H](CC3CCCCC3)C(=O)O)ccc21 [Example 37, (S)-3-Cyclohexyl-2-{[1-((1R,2R)-2-methyl-cyclohexyl)-2-thiazol-5-ylmethyl-1H-benzoimidazole-5-carbonyl]-amino}-propionic acid]
22 | 115 nM | C[C@@H]1CCCC[C@H]1n1c(Cc2cccs2)nc2cc(C(=O)NC3(C(=O)O)CCCCC3)ccc21 [Example 38, 1-{[1-((1R,2R)-2-Methyl-cyclohexyl)-2-thiophen-2-ylmethyl-1H-benzoimidazole-5-carbonyl]-amino}-cyclohexanecarboxylic acid]
23 | 1140 nM | CCC(CC)n1c(Cc2cccs2)nc2cc(C(=O)NC(CC3CCCCCC3)C(=O)O)ccc21 (stereo not drawn) [Example 39, 3-Cycloheptyl-2-{[1-(1-ethyl-propyl)-2-thiophen-2-ylmethyl-1H-benzoimidazole-5-carbonyl]-amino}-propionic acid]
24 | 915 nM | C[C@@H]1CCCC[C@H]1n1c(Cc2cccs2)nc2cc(C(=O)NC(CC3CCCCCC3)C(=O)O)ccc21 (stereo partly drawn) [Example 40, 3-Cycloheptyl-2-{[1-((1R,2R)-2-methyl-cyclohexyl)-2-thiophen-2-ylmethyl-1H-benzoimidazole-5-carbonyl]-amino}-propionic acid]
